{
  "source": "paper PMC7002416",
  "about": "“Probiotic properties of a phytase producing Pediococcus acidilactici strain SMVDUDB2 isolated from traditional fermented cheese product, Kalarei” (Scientific Reports, 2020)",
  "test_system": "phytase (extracellular phytase from P. acidilactici SMVDUDB2)",
  "details": "0.1-1.8 mM sodium phytate, 0.2 M sodium acetate pH 5.5",
  "data": [
    {"smiles": "O=P(O)(O)O[C@H]1[C@H](OP(=O)(O)O)[C@@H](OP(=O)(O)O)[C@H](OP(=O)(O)O)[C@@H](OP(=O)(O)O)[C@H]1OP(=O)(O)O", "note": "[sodium phytate]", "values": [
      {"measurement": "Km", "result": 385, "unit": "µM"}
    ]}
  ]
}
